According to PubChem BioAssay (NCI):
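Protocol summary: plate cells (96-well), add compound at 5 concentrations, incubate 48 h, interpolate endpoints linearly. At the TGI there is no net growth.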

Key:
Assay in all cases: DTP human tumour cell line panel, 48 h
786-0 renal = test system: 786-0 renal
A498 renal = test system: A498 renal
A549 NSCLC = test system: A549 NSCLC
ACHN renal = test system: ACHN renal
BT-549 breast = test system: BT-549 breast
CAKI-1 renal = test system: CAKI-1 renal
CCRF-CEM leukemia = test system: CCRF-CEM leukemia
COLO 205 colon = test system: COLO 205 colon
DU-145 prostate = test system: DU-145 prostate
HCC-2998 colon = test system: HCC-2998 colon
HCT-116 colon = test system: HCT-116 colon
HCT-15 colon = test system: HCT-15 colon
HOP-62 NSCLC = test system: HOP-62 NSCLC
HOP-92 NSCLC = test system: HOP-92 NSCLC
HS 578T breast = test system: HS 578T breast
HT29 colon = test system: HT29 colon
IGROV1 ovarian = test system: IGROV1 ovarian
K-562 leukemia = test system: K-562 leukemia
KM12 colon = test system: KM12 colon
M14 melanoma = test system: M14 melanoma
MALME-3M melanoma = test system: MALME-3M melanoma
MCF7 breast = test system: MCF7 breast
MDA-MB-231 breast = test system: MDA-MB-231 breast
MDA-MB-435 = test system: MDA-MB-435
MDA-N = test system: MDA-N
MOLT-4 leukemia = test system: MOLT-4 leukemia
NCI-H226 lung = test system: NCI-H226 lung
NCI-H23 lung = test system: NCI-H23 lung
NCI-H460 lung = test system: NCI-H460 lung
NCI-H522 lung = test system: NCI-H522 lung
NCI/ADR-RES ovarian = test system: NCI/ADR-RES ovarian
OVCAR-3 ovarian = test system: OVCAR-3 ovarian
OVCAR-4 ovarian = test system: OVCAR-4 ovarian
OVCAR-5 ovarian = test system: OVCAR-5 ovarian
OVCAR-8 ovarian = test system: OVCAR-8 ovarian
PC-3 prostate = test system: PC-3 prostate
RPMI-8226 leukemia = test system: RPMI-8226 leukemia
RXF 393 renal = test system: RXF 393 renal
SF-268 CNS = test system: SF-268 CNS
SF-295 CNS = test system: SF-295 CNS
SF-539 CNS = test system: SF-539 CNS
SK-MEL-2 melanoma = test system: SK-MEL-2 melanoma
SK-MEL-28 melanoma = test system: SK-MEL-28 melanoma
SK-MEL-5 melanoma = test system: SK-MEL-5 melanoma
SK-OV-3 ovarian = test system: SK-OV-3 ovarian
SN12C renal = test system: SN12C renal
SNB-19 CNS = test system: SNB-19 CNS
SNB-75 CNS = test system: SNB-75 CNS
SR leukemia = test system: SR leukemia
SW-620 colon = test system: SW-620 colon
T-47D breast = test system: T-47D breast
TK-10 renal = test system: TK-10 renal
U251 CNS = test system: U251 CNS
UACC-257 melanoma = test system: UACC-257 melanoma
UACC-62 melanoma = test system: UACC-62 melanoma
UO-31 renal = test system: UO-31 renal
EKVX NSCLC = test system: EKVX NSCLC
HL-60(TB) leukemia = test system: HL-60(TB) leukemia
LOX IMVI melanoma = test system: LOX IMVI melanoma

Compound `COc1ccc(NC(=S)NNC(=O)c2cc(-c3ccccc3)nc3ccccc23)cc1` has a TGI (786-0 renal) of 40.5 µM, a TGI (A498 renal) of 35.1 µM and a TGI (A549 NSCLC) of 47 µM. For the same compound, the TGI (ACHN renal) was 87.3 µM, the TGI (BT-549 breast) was 39.8 µM and the TGI (CAKI-1 renal) was 60 µM. The TGI (CCRF-CEM leukemia) was 34.8 µM, the TGI (COLO 205 colon) was 97.4 µM and the TGI (DU-145 prostate) was 45.4 µM. The TGI (HCC-2998 colon) was 24.6 µM, the TGI (HCT-116 colon) was 27 µM and the TGI (HCT-15 colon) was 33.7 µM. For the same compound, the TGI (HOP-62 NSCLC) was 33.3 µM, the TGI (HOP-92 NSCLC) was 31.9 µM and the TGI (HS 578T breast) was 75.5 µM. For the same compound, the TGI (HT29 colon) was 39.3 µM, the TGI (IGROV1 ovarian) was greater than 100 µM and the TGI (K-562 leukemia) was 46.5 µM. For the same compound, the TGI (KM12 colon) was greater than 100 µM, the TGI (M14 melanoma) was 31.9 µM and the TGI (MALME-3M melanoma) was 54 µM. The TGI (MCF7 breast) was 17 µM, the TGI (MDA-MB-231 breast) was 51.2 µM and the TGI (MDA-MB-435) was 13.4 µM. For the same compound, the TGI (MDA-N) was 15.5 µM, the TGI (MOLT-4 leukemia) was 59.2 µM and the TGI (NCI-H226 lung) was 42.8 µM. It also gave a TGI (NCI-H23 lung) of 30.6 µM, a TGI (NCI-H460 lung) of 35.9 µM and a TGI (NCI-H522 lung) of 50.7 µM. The TGI (NCI/ADR-RES ovarian) was 35.5 µM, the TGI (OVCAR-3 ovarian) was 33.1 µM and the TGI (OVCAR-4 ovarian) was 65.1 µM. For the same compound, the TGI (OVCAR-5 ovarian) was 58.8 µM, the TGI (OVCAR-8 ovarian) was 38.9 µM and the TGI (PC-3 prostate) was 55.1 µM. It also gave a TGI (RPMI-8226 leukemia) of 43.2 µM, a TGI (RXF 393 renal) of 44.6 µM and a TGI (SF-268 CNS) of 90.1 µM. It also gave a TGI (SF-295 CNS) of 16.4 µM, a TGI (SF-539 CNS) of 27.2 µM and a TGI (SK-MEL-2 melanoma) of 38.9 µM. For the same compound, the TGI (SK-MEL-28 melanoma) was 43.3 µM, the TGI (SK-MEL-5 melanoma) was 25.6 µM and the TGI (SK-OV-3 ovarian) was 15.9 µM. The TGI (SN12C renal) was 48.6 µM, the TGI (SNB-19 CNS) was greater than 100 µM and the TGI (SNB-75 CNS) was 70.3 µM. It also gave a TGI (SR leukemia) of 9.79 µM, a TGI (SW-620 colon) of 41.6 µM and a TGI (T-47D breast) of 59.7 µM. It also gave a TGI (TK-10 renal) of 46.8 µM, a TGI (U251 CNS) of 38.5 µM and a TGI (UACC-257 melanoma) of 46.9 µM. It also gave a TGI (UACC-62 melanoma) of 30.6 µM and a TGI (UO-31 renal) of 26.3 µM.

`Cc1ccc(S(=O)(=O)N2CCN(CCO)CCN(S(=O)(=O)c3ccc(C)cc3)CCN(CCO)CC2)cc1` was tested, and the TGI (786-0 renal) was 67 µM, the TGI (A498 renal) was 62.7 µM and the TGI (A549 NSCLC) was 57 µM. The TGI (ACHN renal) was 90.9 µM, the TGI (BT-549 breast) was greater than 100 µM and the TGI (CAKI-1 renal) was greater than 100 µM. It also gave a TGI (CCRF-CEM leukemia) of 54 µM, a TGI (COLO 205 colon) of 33.2 µM and a TGI (DU-145 prostate) of 34.8 µM. It also gave a TGI (EKVX NSCLC) of 39.1 µM, a TGI (HCC-2998 colon) of 29.7 µM and a TGI (HCT-116 colon) of 29.1 µM. It also gave a TGI (HCT-15 colon) of 37.2 µM, a TGI (HL-60(TB) leukemia) of 37.3 µM and a TGI (HOP-62 NSCLC) of 81.5 µM. It also gave a TGI (HOP-92 NSCLC) of 66 µM, a TGI (HS 578T breast) of 93.4 µM and a TGI (HT29 colon) of 26 µM. For the same compound, the TGI (IGROV1 ovarian) was greater than 100 µM, the TGI (K-562 leukemia) was 35.3 µM and the TGI (KM12 colon) was 38.6 µM. For the same compound, the TGI (LOX IMVI melanoma) was 28.4 µM, the TGI (M14 melanoma) was 31.5 µM and the TGI (MCF7 breast) was 28.2 µM. The TGI (MDA-MB-231 breast) was 48.4 µM, the TGI (MDA-MB-435) was 29.2 µM and the TGI (MDA-N) was 93.6 µM. For the same compound, the TGI (MOLT-4 leukemia) was 57.1 µM, the TGI (NCI-H226 lung) was greater than 100 µM and the TGI (NCI-H23 lung) was 45.9 µM. For the same compound, the TGI (NCI-H460 lung) was 28.7 µM, the TGI (NCI-H522 lung) was 33.2 µM and the TGI (NCI/ADR-RES ovarian) was 38.3 µM. For the same compound, the TGI (OVCAR-3 ovarian) was 44.5 µM, the TGI (OVCAR-4 ovarian) was 37.6 µM and the TGI (OVCAR-5 ovarian) was greater than 100 µM. The TGI (OVCAR-8 ovarian) was greater than 100 µM, the TGI (PC-3 prostate) was greater than 100 µM and the TGI (RXF 393 renal) was 82.1 µM. The TGI (SF-268 CNS) was greater than 100 µM, the TGI (SF-295 CNS) was greater than 100 µM and the TGI (SF-539 CNS) was 33.4 µM. It also gave a TGI (SK-MEL-2 melanoma) of 35.2 µM, a TGI (SK-MEL-28 melanoma) of 30.2 µM and a TGI (SK-MEL-5 melanoma) of 27.3 µM. It also gave a TGI (SN12C renal) greater than 100 µM, a TGI (SNB-19 CNS) greater than 100 µM and a TGI (SNB-75 CNS) of 92.4 µM. The TGI (SR leukemia) was 27.8 µM, the TGI (SW-620 colon) was greater than 100 µM and the TGI (T-47D breast) was 36.2 µM. It also gave a TGI (TK-10 renal) greater than 100 µM, a TGI (U251 CNS) of 72.3 µM and a TGI (UACC-257 melanoma) of 25.1 µM. It also gave a TGI (UACC-62 melanoma) of 37.7 µM and a TGI (UO-31 renal) greater than 100 µM.

For `O=c1oc2ccccc2c(O)c1Cc1cccc(Cc2c(O)c3ccccc3oc2=O)c1`, the TGI (786-0 renal) was greater than 100 µM, the TGI (A498 renal) was greater than 100 µM and the TGI (A549 NSCLC) was greater than 100 µM. The TGI (ACHN renal) was greater than 100 µM, the TGI (BT-549 breast) was greater than 100 µM and the TGI (CAKI-1 renal) was greater than 100 µM. The TGI (CCRF-CEM leukemia) was greater than 100 µM, the TGI (COLO 205 colon) was greater than 100 µM and the TGI (DU-145 prostate) was greater than 100 µM. The TGI (EKVX NSCLC) was greater than 100 µM, the TGI (HCC-2998 colon) was greater than 100 µM and the TGI (HCT-116 colon) was greater than 100 µM. For the same compound, the TGI (HCT-15 colon) was greater than 100 µM, the TGI (HL-60(TB) leukemia) was greater than 100 µM and the TGI (HOP-62 NSCLC) was greater than 100 µM. It also gave a TGI (HOP-92 NSCLC) greater than 100 µM, a TGI (HS 578T breast) greater than 100 µM and a TGI (HT29 colon) greater than 100 µM. The TGI (IGROV1 ovarian) was greater than 100 µM, the TGI (K-562 leukemia) was greater than 100 µM and the TGI (KM12 colon) was greater than 100 µM. For the same compound, the TGI (LOX IMVI melanoma) was greater than 100 µM, the TGI (M14 melanoma) was greater than 100 µM and the TGI (MALME-3M melanoma) was greater than 100 µM. It also gave a TGI (MCF7 breast) greater than 100 µM, a TGI (MDA-MB-231 breast) greater than 100 µM and a TGI (MDA-MB-435) greater than 100 µM. For the same compound, the TGI (MDA-N) was greater than 100 µM, the TGI (MOLT-4 leukemia) was greater than 100 µM and the TGI (NCI-H226 lung) was greater than 100 µM. It also gave a TGI (NCI-H23 lung) greater than 100 µM, a TGI (NCI-H460 lung) greater than 100 µM and a TGI (NCI-H522 lung) greater than 100 µM. For the same compound, the TGI (NCI/ADR-RES ovarian) was greater than 100 µM, the TGI (OVCAR-3 ovarian) was greater than 100 µM and the TGI (OVCAR-4 ovarian) was greater than 100 µM. For the same compound, the TGI (OVCAR-5 ovarian) was greater than 100 µM, the TGI (OVCAR-8 ovarian) was greater than 100 µM and the TGI (PC-3 prostate) was greater than 100 µM. It also gave a TGI (RPMI-8226 leukemia) greater than 100 µM, a TGI (RXF 393 renal) greater than 100 µM and a TGI (SF-268 CNS) greater than 100 µM. The TGI (SF-295 CNS) was greater than 100 µM, the TGI (SF-539 CNS) was greater than 100 µM and the TGI (SK-MEL-2 melanoma) was greater than 100 µM. For the same compound, the TGI (SK-MEL-28 melanoma) was greater than 100 µM, the TGI (SK-MEL-5 melanoma) was greater than 100 µM and the TGI (SK-OV-3 ovarian) was greater than 100 µM. The TGI (SN12C renal) was greater than 100 µM, the TGI (SNB-19 CNS) was greater than 100 µM and the TGI (SNB-75 CNS) was greater than 100 µM. The TGI (SW-620 colon) was greater than 100 µM, the TGI (T-47D breast) was greater than 100 µM and the TGI (TK-10 renal) was greater than 100 µM. The TGI (U251 CNS) was greater than 100 µM, the TGI (UACC-257 melanoma) was greater than 100 µM and the TGI (UACC-62 melanoma) was greater than 100 µM. The TGI (UO-31 renal) was greater than 100 µM.
